pIC50: −log10 of the molar value.
Tests used:
[1] = target: Tyrosine-protein kinase ITK/TSK (Homo sapiens, UniProt Q08881); assay: Inhibition of recombinant human N-terminal His6-tagged ITK (352 to 617 residues) expressed in baculovirus Sf21 insect cells preincubated for 5 mins followed by Ulight-TK peptide substrate addition after 30 to 60 mins in presence of ATP by fluorescence assay
Homo sapiens [2] = species: Homo sapiens; assay: Selectivity ratio of IC50 for recombinant human full length N-terminal His6-tagged LYN to IC50 for human full length N-terminal His6-tagged BMX
Mus musculus [3] = assay: Toxicity in nude mouse xenografted with human NCI-H1975 cells assessed as abnormal behavior at 25 mg/kg administered qd via oral gavage for 18 days measured on day 14; type: organism-based; conditions: in vivo, 432 h
Homo sapiens [4] = species: Homo sapiens; assay: Selectivity ratio of IC50 for C-terminal His6-tagged human Her2 (676 to end residues) to IC50 for human full length N-terminal His6-tagged BMX
[5] = target: Receptor tyrosine-protein kinase erbB-4 (Homo sapiens, UniProt Q15303); assay: Inhibition of human N-terminal 6His-tagged HER4 (706 to 991 residues) preincubated for 5 mins followed by substrate addition after 30 to 60 mins in presence ATP of fluorescence assay
Homo sapiens [6] = species: Homo sapiens; assay: Selectivity ratio of IC50 for recombinant human N-terminal His6-tagged ABL (27 to end residues) to IC50 for human full length N-terminal His6-tagged BMX
[7] = target: Tyrosine-protein kinase TXK (Homo sapiens, UniProt P42681); assay: Inhibition of recombinant human N-terminal His6-tagged TXK (256 to end residues) expressed in baculovirus Sf21 insect cells preincubated for 5 mins followed by substrate addition after 30 to 60 mins in presence of ATP by fluorescence assay
Homo sapiens [8] = species: Homo sapiens; assay: Selectivity ratio of IC50 for recombinant human full length N-terminal His6-tagged NEK2 to IC50 for human full length N-terminal His6-tagged BMX
Homo sapiens [9] = species: Homo sapiens; assay: Selectivity ratio of IC50 for recombinant human N-terminal GST-tagged FLT3 (564 to end residues) to IC50 for human full length N-terminal His6-tagged BMX
Mus musculus [10] = assay: Toxicity in nude mouse xenografted with human NCI-H1975 cells assessed as body weight loss at 25 mg/kg administered qd via oral gavage for 18 days measured on day 14; type: organism-based; conditions: in vivo, 432 h
[11] = target: Tyrosine-protein kinase Tec (Homo sapiens, UniProt P42680); assay: Inhibition of recombinant human N-terminal His6-tagged TEC (174 to end residues) expressed in baculovirus Sf21 insect cells preincubated for 5 mins followed by Ulight-TK peptide substrate addition after 30 to 60 mins in presence of ATP by fluorescence assay
Sequence of Tyrosine-protein kinase Tec (P42680 whole entry): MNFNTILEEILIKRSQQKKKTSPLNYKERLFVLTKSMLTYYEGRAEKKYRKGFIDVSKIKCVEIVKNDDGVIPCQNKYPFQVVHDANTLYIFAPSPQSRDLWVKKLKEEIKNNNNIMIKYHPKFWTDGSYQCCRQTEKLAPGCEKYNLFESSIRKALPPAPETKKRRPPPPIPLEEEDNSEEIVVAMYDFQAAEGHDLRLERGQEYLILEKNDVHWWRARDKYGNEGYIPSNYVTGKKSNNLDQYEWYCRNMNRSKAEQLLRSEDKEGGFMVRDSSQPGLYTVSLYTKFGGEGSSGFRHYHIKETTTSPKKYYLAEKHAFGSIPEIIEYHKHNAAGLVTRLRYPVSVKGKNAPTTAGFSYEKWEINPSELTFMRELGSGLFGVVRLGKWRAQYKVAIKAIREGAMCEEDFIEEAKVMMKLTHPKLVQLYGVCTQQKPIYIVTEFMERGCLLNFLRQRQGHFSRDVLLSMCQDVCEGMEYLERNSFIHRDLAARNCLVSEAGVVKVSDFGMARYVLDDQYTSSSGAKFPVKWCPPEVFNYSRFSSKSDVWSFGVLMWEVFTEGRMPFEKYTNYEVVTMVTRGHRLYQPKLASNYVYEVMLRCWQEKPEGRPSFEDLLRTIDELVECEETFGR

Homo sapiens [12] = species: Homo sapiens; assay: Selectivity ratio of IC50 for recombinant human N-terminal GST-tagged RET (658 to end residues) to IC50 for human full length N-terminal His6-tagged BMX
Homo sapiens [13] = species: Homo sapiens; assay: Selectivity ratio of IC50 for recombinant human N-terminal His6-tagged TXK (256 to end residues) to IC50 for human full length N-terminal His6-tagged BMX
[14] = target: Receptor-interacting serine/threonine-protein kinase 2 (Homo sapiens, UniProt O43353); assay: Inhibition of recombinant human N-terminal His6-tagged RIPK2 (1 to 299 residues) expressed in baculovirus Sf21 insect cells preincubated for 5 mins followed by substrate addition after 30 to 60 mins in presence of ATP by fluorescence assay
[15] = target: Ribosomal protein S6 kinase alpha-1 (Homo sapiens, UniProt Q15418); assay: Inhibition of RSK1 (unknown origin) preincubated for 5 mins followed by substrate addition after 30 to 60 mins in presence of ATP by fluorescence assay
Homo sapiens [16] = species: Homo sapiens; assay: Selectivity ratio of IC50 for recombinant human N-terminal His6-tagged FGR (2 to end residues) to IC50 for human full length N-terminal His6-tagged BMX
[17] = target: Tyrosine-protein kinase Fyn (Homo sapiens, UniProt P06241); assay: Inhibition of recombinant human full length N-terminal His6-tagged FYN expressed in baculovirus Sf21 insect cells preincubated for 5 mins followed by biotinyl-beta Abeta Abeta AYQAEENTYDEYEN substrate addition after 30 to 60 mins in presence of ATP by fluorescence assay
Sequence of Tyrosine-protein kinase Fyn (P06241 whole entry): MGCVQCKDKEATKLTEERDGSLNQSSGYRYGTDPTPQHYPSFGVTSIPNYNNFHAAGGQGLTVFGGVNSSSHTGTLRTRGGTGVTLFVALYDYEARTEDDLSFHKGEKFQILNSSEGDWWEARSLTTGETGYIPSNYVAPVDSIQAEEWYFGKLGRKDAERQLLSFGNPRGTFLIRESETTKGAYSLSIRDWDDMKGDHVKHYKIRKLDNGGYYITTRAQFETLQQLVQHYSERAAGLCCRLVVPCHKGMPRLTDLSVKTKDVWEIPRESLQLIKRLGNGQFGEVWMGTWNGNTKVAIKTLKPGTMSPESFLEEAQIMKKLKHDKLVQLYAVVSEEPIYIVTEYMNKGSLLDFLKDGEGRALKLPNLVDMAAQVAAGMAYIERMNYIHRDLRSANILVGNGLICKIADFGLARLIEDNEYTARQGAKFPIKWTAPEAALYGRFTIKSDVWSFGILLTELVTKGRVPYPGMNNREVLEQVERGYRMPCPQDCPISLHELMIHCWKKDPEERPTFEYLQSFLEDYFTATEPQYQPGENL

[18] = target: Tyrosine-protein kinase JAK1 (Homo sapiens, UniProt P23458); assay: Inhibition of human JAK1 expressed in baculovirus in Sf21 insect cells preincubated for 5 mins followed by substrate addition after 30 to 60 mins in presence of ATP by fluorescence assay
[19] = target: Receptor tyrosine-protein kinase erbB-2 (Homo sapiens, UniProt P04626); assay: Inhibition of human C-terminal 6His-tagged Her2 (676 to end) expressed in baculovirus Sf21 insect cells preincubated for 5 mins followed by biotinyl-beta Abeta Abeta AAEEEEYFELVAKKK substrate addition after 30 to 60 mins in presence of ATP by fluorescence assay
Sequence of Receptor tyrosine-protein kinase erbB-2 (P04626 whole entry): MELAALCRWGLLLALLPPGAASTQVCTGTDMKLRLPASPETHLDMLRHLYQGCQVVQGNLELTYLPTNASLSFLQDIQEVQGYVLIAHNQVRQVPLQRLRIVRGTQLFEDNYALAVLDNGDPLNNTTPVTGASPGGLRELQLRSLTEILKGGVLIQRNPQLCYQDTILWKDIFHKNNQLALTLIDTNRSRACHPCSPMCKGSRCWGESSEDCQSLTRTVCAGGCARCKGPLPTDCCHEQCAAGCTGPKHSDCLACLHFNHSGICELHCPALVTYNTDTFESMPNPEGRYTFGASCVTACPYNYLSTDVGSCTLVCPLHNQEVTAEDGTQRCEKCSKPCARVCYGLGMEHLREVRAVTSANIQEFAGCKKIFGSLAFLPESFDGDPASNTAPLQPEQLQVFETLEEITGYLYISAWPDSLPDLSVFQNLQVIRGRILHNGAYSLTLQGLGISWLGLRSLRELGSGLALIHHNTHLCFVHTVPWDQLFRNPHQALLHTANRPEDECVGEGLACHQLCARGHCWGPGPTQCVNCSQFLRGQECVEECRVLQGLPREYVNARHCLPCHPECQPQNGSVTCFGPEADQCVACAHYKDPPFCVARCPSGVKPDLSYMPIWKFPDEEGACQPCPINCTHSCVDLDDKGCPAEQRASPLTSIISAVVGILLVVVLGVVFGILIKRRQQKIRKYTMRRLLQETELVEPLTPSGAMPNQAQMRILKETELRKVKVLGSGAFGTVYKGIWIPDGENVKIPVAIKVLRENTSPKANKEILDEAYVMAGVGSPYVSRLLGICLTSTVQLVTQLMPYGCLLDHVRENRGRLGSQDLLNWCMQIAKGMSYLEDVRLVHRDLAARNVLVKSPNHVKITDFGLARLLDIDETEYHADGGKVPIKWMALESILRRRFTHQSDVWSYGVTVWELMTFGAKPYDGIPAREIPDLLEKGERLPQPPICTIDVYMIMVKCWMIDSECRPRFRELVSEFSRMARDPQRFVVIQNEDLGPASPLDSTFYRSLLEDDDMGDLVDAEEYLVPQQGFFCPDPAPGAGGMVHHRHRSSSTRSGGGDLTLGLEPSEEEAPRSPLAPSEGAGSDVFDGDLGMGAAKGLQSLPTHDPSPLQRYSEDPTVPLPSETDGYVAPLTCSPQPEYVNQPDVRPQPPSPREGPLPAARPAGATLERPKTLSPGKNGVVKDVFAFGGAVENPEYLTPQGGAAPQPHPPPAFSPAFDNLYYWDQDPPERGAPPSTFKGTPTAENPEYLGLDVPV

Mus musculus [20] = assay: Toxicity in nude mouse xenografted with human NCI-H1975 cells assessed as body weight loss at 25 mg/kg administered qd via oral gavage measured every 2 days up to 18 days; type: organism-based; conditions: in vivo
NCI-H1975 [21] = assay: Antiproliferative activity against human NCI-H1975 cells harboring EGFR L858R/T790M mutant after 72 hrs by MTT assay; type: functional, cell-based; conditions: NCI-H1975, 72 h
[22] = target: Macrophage colony-stimulating factor 1 receptor (Homo sapiens, UniProt P07333); assay: Inhibition of recombinant human N-terminal His6-tagged FMS (538 to end residues) expressed in baculovirus Sf21 insect cells preincubated for 5 mins followed by substrate addition after 30 to 60 mins in presence of ATP by fluorescence assay
Sequence of Macrophage colony-stimulating factor 1 receptor (P07333 whole entry): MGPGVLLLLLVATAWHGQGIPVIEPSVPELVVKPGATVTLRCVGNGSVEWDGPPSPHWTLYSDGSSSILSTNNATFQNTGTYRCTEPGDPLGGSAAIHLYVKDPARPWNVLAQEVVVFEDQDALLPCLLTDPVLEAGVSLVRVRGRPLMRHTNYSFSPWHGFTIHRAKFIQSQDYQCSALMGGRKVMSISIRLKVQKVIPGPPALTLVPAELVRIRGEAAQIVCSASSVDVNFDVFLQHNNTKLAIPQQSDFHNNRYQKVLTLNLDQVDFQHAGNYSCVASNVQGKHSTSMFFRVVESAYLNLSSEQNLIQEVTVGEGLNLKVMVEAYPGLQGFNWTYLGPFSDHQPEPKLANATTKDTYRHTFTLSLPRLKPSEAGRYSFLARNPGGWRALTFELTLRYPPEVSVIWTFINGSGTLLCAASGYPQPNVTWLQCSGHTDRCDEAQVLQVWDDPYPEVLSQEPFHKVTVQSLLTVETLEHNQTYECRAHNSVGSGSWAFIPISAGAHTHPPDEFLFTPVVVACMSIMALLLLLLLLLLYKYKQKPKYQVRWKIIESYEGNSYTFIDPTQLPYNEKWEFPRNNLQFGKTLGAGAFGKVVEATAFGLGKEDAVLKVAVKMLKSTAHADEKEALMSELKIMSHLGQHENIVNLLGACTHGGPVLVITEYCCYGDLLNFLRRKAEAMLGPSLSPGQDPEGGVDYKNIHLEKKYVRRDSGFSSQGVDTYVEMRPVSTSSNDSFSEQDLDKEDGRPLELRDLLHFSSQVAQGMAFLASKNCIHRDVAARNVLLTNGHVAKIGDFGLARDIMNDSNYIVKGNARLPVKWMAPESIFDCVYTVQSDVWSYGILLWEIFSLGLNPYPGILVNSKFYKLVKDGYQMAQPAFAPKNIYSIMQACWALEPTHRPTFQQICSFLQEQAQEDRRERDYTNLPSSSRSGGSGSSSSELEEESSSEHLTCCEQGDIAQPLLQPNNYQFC

Homo sapiens [23] = species: Homo sapiens; assay: Selectivity ratio of IC50 for recombinant human N-terminal GST-tagged MKK7beta (2 to end residues) to IC50 for human full length N-terminal His6-tagged BMX
[24] = target: Tyrosine-protein kinase Yes (Homo sapiens, UniProt P07947); assay: Inhibition of recombinant human full length N-terminal His6-tagged YES expressed in baculovirus Sf21 insect cells preincubated for 5 mins followed by biotinyl-beta Abeta Abeta AYQAEENTYDEYEN substrate addition after 30 to 60 mins in presence of ATP by fluorescence assay
Sequence of Tyrosine-protein kinase Yes (P07947 whole entry): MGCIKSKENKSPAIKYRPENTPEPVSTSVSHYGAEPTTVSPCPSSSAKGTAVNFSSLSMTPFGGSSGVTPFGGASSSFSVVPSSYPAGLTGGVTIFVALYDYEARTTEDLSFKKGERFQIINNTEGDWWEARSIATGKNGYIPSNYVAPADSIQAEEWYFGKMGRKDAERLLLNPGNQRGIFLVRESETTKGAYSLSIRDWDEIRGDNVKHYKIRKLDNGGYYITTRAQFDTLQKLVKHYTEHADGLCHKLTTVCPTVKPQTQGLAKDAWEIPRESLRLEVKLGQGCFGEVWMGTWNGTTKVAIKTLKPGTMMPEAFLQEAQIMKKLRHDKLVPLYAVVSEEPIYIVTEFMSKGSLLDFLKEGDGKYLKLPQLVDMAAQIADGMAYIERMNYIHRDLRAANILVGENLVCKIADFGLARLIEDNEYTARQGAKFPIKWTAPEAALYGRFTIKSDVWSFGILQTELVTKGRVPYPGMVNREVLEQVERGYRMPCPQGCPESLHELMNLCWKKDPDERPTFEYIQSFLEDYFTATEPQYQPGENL

[25] = target: Tyrosine-protein kinase JAK3 (Homo sapiens, UniProt P52333); assay: Inhibition of recombinant human N-terminal His6-tagged JAK3 (781 to end residues) expressed in baculovirus Sf21 insect cells preincubated for 5 mins followed by substrate addition after 30 to 60 mins in presence of ATP by fluorescence assay
Sequence of Tyrosine-protein kinase JAK3 (P52333 whole entry): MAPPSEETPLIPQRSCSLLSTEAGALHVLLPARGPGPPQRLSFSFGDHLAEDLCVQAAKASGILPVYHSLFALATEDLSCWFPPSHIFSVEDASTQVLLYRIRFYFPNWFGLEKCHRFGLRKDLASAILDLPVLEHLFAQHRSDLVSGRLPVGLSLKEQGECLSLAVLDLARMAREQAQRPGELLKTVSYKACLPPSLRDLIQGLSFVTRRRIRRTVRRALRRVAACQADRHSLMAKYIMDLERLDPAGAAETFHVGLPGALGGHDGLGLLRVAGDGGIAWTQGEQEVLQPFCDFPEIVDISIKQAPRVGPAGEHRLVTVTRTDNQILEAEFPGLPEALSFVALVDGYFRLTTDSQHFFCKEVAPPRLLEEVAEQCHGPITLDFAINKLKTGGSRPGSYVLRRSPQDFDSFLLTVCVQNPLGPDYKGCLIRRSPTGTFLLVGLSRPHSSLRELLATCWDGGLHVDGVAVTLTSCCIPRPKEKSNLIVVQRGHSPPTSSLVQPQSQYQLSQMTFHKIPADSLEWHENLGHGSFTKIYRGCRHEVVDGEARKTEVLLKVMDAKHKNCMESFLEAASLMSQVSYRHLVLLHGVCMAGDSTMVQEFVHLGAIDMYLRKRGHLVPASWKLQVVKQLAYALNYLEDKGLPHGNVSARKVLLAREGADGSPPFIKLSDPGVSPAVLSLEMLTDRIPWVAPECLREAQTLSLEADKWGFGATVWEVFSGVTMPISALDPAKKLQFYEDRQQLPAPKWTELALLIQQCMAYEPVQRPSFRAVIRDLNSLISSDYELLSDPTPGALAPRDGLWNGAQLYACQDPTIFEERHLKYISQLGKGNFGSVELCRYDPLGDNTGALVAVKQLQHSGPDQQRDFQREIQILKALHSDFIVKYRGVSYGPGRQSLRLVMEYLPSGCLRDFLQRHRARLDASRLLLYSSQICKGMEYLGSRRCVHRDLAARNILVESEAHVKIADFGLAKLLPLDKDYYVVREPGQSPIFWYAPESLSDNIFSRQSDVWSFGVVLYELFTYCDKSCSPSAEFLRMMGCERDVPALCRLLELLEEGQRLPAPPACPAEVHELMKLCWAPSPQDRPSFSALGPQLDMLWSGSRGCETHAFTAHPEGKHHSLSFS

NCI-H1975 [26] = assay: Antitumor activity against human NCI-H1975 cells xenografted in nude mouse assessed as tumor growth inhibition at 25 mg/kg administered via oral gavage qd measured every 2 days up to 18 days relative to control; type: functional; conditions: read-out: TGI
[27] = target: Tyrosine-protein kinase Fgr (Homo sapiens, UniProt P09769); assay: Inhibition of recombinant human N-terminal His6-tagged FGR (2 to end residues) expressed in baculovirus Sf21 insect cells preincubated for 5 mins followed by substrate addition after 30 to 60 mins in presence of ATP by fluorescence assay
Homo sapiens [28] = species: Homo sapiens; assay: Selectivity ratio of IC50 for recombinant human N-terminal His6-tagged JAK3 (781 to end residues) to IC50 for human full length N-terminal His6-tagged BMX

With `C=CS(=O)(=O)N1CCC[C@@H]1Cn1cc(-c2ccc3c(c2)OCO3)c2c(N)ncnc21` as the compound, how does the pIC50 [1] read?
The pIC50 was 5.25.

And the Ratio IC50 (Homo sapiens [2])?
The Ratio IC50 was 8.3.

And the Activity (Mus musculus [3])?
Its Activity is “Non-Toxic”.

What about the Ratio IC50 (Homo sapiens [4]) of the same compound?
The Ratio IC50 was 37.8.

What about the pIC50 [5] of the same compound?
Its pIC50 is 6.00.

And the Ratio IC50 (Homo sapiens [6])?
The Ratio IC50 was 22.5.

What about the pIC50 [7] of the same compound?
Its pIC50 is 6.05.

And the Ratio IC50 (Homo sapiens [8])?
Its Ratio IC50 is greater than 280.

And the Ratio IC50 (Homo sapiens [9])?
The Ratio IC50 was 91.7.

What about the Activity (Mus musculus [10]) of the same compound?
The Activity was “Non-Toxic”.

And the pIC50 [11]?
Its pIC50 is 6.94.

What about the Ratio IC50 (Homo sapiens [12]) of the same compound?
The Ratio IC50 was 2.5.

And the Ratio IC50 (Homo sapiens [13])?
The Ratio IC50 was 25.7.

And the pIC50 [14]?
Its pIC50 is 6.39.

What about the pIC50 [15] of the same compound?
Its pIC50 is less than 5.00.

What about the Ratio IC50 (Homo sapiens [16]) of the same compound?
The Ratio IC50 was 3.7.

What about the pIC50 [17] of the same compound?
The pIC50 was 6.37.

And the pIC50 [18]?
The pIC50 was less than 5.00.

What about the pIC50 [19] of the same compound?
The pIC50 was 5.87.

What about the Activity (Mus musculus [20]) of the same compound?
Its Activity is “Toxic”.

And the pIC50 (NCI-H1975 [21])?
The pIC50 was 6.04.

What about the pIC50 [22] of the same compound?
Its pIC50 is 5.33.

What about the Ratio IC50 (Homo sapiens [23]) of the same compound?
Its Ratio IC50 is 5.3.

And the pIC50 [24]?
The pIC50 was 7.24.

And the pIC50 [25]?
Its pIC50 is 5.09.

What about the inhibition in vivo at 25 mg/kg (NCI-H1975 [26]) of the same compound?
Its inhibition in vivo at 25 mg/kg is 73.9%.

What about the pIC50 [27] of the same compound?
The pIC50 was 6.88.

What about the Ratio IC50 (Homo sapiens [28]) of the same compound?
Its Ratio IC50 is 229.

Reference: ChEMBL document CHEMBL4052785, “Discovery of (R)-5-(benzo[d][1,3]dioxol-5-yl)-7-((1-(vinylsulfonyl)pyrrolidin-2-yl)methyl)-7H-pyrrolo[2,3-d]pyrimidin-4-amine (B6) as a potent Bmx inhibitor for the treatment of NSCLC” (Bioorg Med Chem Lett, 2017)
